Assay results published in patent US9790180B2, “Piperidine derivatives as HDAC1/2 inhibitors” (Acetylon Pharmaceuticals, Inc., priority 2014, dated 2017).

How the values were obtained:
HDAC1 = HDAC1 (Homo sapiens (Human), UniProt Q13547); assay: HDAC enzyme assay, HDAC1; type: biochemical; settings: 24 hours pre-incubation with enzyme; read-out: IC50 (nM) HDAC1
Procedure: (§1) Compounds for testing were diluted in DMSO to 50 fold the final concentration and a ten point three fold dilution series was made. The compounds were diluted in assay buffer (50 mM HEPES, pH 7.4, 100 mM KCl, 0.001% Tween-20, 0.05% BSA, 20 μM tris(2-carboxyethyl)phosphine) to 6 fold their final concentration. The HDAC enzymes (purchased from BPS Biosciences) were diluted to 1.5 fold their final concentration in assay buffer and pre-incubated with the compounds for 24 hours prior to addition of the substrate.
(§2) The substrate tripeptide substrate 3 (synthesized in house) for each enzyme was equal to the Km as determined by a substrate titration curve. The substrates were diluted in assay buffer at 6× their final concentration with 0.3 μM sequencing grade trypsin (Sigma). The substrate/trypsin mix was added to the enzyme/compound mix, the plate was shaken for 60 seconds and placed into a Spectramax M5 microtiter plate reader. The development of fluorescence was monitored for 30 min and the linear rate of the reaction was calculated. The IC50 was determined using Graph Pad Prism by a four parameter curve fit. The IC50 values obtained for the compounds of this invention are found in Table 1. Examples of the curves are found in FIGS. 1 and 4.

HDAC2 = HDAC2 (Homo sapiens (Human), UniProt Q92769); assay: HDAC enzyme assay, HDAC2; type: biochemical; settings: 24 hours pre-incubation with enzyme; read-out: IC50 (nM) HDAC2
Sequence of HDAC2 (Q92769 whole entry): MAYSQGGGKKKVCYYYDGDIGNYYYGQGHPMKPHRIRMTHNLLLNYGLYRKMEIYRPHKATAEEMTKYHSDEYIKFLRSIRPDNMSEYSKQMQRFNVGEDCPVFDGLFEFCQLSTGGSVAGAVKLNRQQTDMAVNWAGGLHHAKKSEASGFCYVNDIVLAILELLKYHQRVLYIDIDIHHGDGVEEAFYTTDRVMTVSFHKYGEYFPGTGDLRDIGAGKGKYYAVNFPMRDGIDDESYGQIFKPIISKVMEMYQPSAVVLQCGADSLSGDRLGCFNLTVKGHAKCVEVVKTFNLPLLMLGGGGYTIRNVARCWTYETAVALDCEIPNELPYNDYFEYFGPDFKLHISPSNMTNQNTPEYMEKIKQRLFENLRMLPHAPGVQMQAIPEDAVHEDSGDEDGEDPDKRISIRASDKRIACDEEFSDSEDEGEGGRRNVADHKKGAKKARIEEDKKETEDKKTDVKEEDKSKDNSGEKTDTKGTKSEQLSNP
Procedure: as §1, §2

HDAC3 = HDAC3 (Homo sapiens (Human), UniProt O15379); assay: HDAC enzyme assay, HDAC3; type: biochemical; settings: 24 hours pre-incubation with enzyme; read-out: IC50 (nM) HDAC3
Sequence of HDAC3 (O15379 whole entry): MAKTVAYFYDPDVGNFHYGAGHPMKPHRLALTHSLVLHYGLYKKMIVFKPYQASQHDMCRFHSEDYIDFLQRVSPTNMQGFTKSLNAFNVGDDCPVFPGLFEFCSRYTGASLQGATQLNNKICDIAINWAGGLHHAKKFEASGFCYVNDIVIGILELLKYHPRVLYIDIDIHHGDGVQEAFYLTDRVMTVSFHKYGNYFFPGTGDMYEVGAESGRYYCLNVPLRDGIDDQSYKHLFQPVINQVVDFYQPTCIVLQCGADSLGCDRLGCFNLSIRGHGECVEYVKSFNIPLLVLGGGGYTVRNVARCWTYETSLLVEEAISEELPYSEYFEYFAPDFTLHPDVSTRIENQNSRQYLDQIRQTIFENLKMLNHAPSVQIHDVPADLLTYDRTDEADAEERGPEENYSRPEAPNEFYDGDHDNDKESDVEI
Sequence of HDAC3 (Q9Y618 395-489 partner): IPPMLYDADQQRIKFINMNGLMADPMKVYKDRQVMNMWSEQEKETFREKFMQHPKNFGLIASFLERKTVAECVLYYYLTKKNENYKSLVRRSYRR
Procedure: as §1, §2

[1] = Rat cassette pharmacokinetics; type: in vivo; settings: male, SD, plasma
Procedure: Male SD rats were fasted overnight. Compounds of the invention were dissolved in dimethyl acetamide at 10 times the final concentration, then Solutol HS 15 (BASF) was added to a final concentration of 10%. Finally 80% saline was added and vortexed to achieve a clear solution. For the IV dosing three animals were injected via the foot dorsal vein with 1 mg/kg compound. For the PO dosing 5 mg/kg of compound was delivered by oral gavage. Blood was collected via the tail vein into K2EDTA tubes at 5 minutes, 15 minutes, 30 minutes, 1 hour, 2 hours, 4 hours, 8 hours and 24 hours after dosing. The blood was centrifuged at 2000 g for 5 minutes at 4° C. to obtain plasma. The plasma was extracted with acetonitrile and the level of compound was analyzed by LC/MS/MS. The level of compound in plasma was calculated from a standard curve in rat plasma. The IV clearance and area under the curve were calculated using WinNonLin software. The dose adjusted area under the curve for the IV and oral dosing were used to calculate the oral bioavailability.

hERG channel = hERG channel (Homo sapiens (Human), UniProt Q12809); assay: hERG assay (QPatch, CHO cell line expressing hERG channels); type: cell-based; settings: In vitro tox
Sequence of hERG channel (Q12809 whole entry): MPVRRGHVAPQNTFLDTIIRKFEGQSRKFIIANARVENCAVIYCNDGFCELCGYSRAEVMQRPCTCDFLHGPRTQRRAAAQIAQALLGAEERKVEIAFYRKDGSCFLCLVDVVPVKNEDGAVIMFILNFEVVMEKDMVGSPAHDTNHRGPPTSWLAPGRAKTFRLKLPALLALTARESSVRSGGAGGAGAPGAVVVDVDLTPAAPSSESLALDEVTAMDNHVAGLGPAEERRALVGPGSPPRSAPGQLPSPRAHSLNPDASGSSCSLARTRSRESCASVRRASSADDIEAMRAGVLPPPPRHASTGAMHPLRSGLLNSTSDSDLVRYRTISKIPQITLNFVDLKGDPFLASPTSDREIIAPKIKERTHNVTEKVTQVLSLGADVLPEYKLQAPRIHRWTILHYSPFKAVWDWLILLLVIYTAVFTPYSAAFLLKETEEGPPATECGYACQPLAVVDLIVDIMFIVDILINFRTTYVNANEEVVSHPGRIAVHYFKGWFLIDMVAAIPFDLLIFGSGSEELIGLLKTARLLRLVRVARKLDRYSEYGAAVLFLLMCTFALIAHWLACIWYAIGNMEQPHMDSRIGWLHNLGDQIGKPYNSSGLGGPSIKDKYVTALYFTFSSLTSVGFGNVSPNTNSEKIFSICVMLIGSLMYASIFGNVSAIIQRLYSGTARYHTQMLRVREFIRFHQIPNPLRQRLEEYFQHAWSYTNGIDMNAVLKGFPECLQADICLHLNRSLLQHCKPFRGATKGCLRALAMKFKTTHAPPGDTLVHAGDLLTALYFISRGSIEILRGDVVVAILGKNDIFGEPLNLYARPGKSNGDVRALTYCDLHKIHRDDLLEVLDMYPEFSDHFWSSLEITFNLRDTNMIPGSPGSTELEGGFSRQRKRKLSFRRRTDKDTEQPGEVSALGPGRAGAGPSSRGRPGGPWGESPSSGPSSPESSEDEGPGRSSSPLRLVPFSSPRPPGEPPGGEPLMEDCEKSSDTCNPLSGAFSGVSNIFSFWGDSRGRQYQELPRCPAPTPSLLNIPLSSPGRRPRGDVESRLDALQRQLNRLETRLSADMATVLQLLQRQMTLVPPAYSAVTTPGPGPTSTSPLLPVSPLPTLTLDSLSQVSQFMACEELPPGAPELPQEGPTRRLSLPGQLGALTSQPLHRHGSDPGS
Procedure: For hERG assays, a CHO cell line stably transfected with hERG cDNA and expressing hERG channels were seeded into a QPatch plate (Sophion) at a density of 3-8×10^6 cells/ml. The cells were voltage clamped at a holding potential of −80 mV. The hERG current was activated by depolarizing at +20 mV for 5 sec, after which the current was taken back to −50 mV for 5 sec to remove the inactivation and observe the deactivating tail current. The maximum amount of tail current size was used to determine hERG current amplitude. Six doses (30, 10, 3, 1, 0.3 and 0.1 μM) of Compound 003 were chosen to obtain fitting curves and IC50. Data were analyzed using Assay Software provided by Sophion and Graphpad Prism.

[2] = system: CYP1A2, CYP2C9, CYP2C19, CYP3A4, CYP2D6; assay: Cyp inhibition in human liver microsomes; type: in vitro ADME; settings: In vitro tox; human liver microsomes
Procedure: For Cyp inhibition, human live microsomes from BD Gentest were incubated with Compound 003 (10, 3.33, 1.11, 0.37, 0.12, 0.04, 0.01 μM) and substrate (CYP1A2: Phenacetin at 30 μM; CYP2C9: Diclofenac at 10 μM; CYP2C19: S-Mephenytoin at 35 μM; CYP3A4: Midazolam at 5 μM and Testosterone at 80 μM; CYP2D6: Bufuralol at 10 μM) for the following incubation times: CYP1A2, 2C9, 2D6: 10 minutes, 37° C.; CYP2C19: 45 minutes, 37° C.; CYP3A4: 5 minutes, 37° C. Substrate conversion was measured by liquid chromatography/mass spectrometry/mass spectrometry (LC/MS/MS). Inhibition was calculated by curve fitting in Graph Pad Prism.

[3] = rat cassette dosing, 5 mg/kg PO

Sequence of HDAC1 (Q13547 whole entry): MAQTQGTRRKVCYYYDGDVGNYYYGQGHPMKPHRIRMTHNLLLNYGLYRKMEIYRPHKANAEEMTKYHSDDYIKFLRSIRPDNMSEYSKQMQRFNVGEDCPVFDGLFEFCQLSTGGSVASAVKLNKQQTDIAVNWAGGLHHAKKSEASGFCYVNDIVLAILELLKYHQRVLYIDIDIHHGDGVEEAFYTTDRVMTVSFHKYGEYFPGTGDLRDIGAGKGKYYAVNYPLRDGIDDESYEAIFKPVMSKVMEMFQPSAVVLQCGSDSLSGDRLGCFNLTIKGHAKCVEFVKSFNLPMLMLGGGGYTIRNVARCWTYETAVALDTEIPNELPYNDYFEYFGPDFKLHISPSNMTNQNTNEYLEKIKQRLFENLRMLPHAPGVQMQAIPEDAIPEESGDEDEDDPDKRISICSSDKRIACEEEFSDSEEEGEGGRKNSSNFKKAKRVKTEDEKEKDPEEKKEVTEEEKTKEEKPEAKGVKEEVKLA

Row | SMILES | IC50 (HDAC1) [nM] | IC50 (HDAC2) [nM] | IC50 (HDAC3) [nM] | further results
1 | Nc1ccc(-c2cccs2)cc1NC(=O)c1ccc(NC2CCN(C(=O)N3CCCC3)CC2)cc1 [Compound 006] | 4.7 | 22 | 274 | bioavailability ([1]; 5 mg/kg, rat, oral AUC to IV AUC, dose adjusted): 76%; AUC [1, 3]: 31600 ng·h/mL; Cmax [1, 3]: 1520 ng/mL; half-life ([1]; rat cassette dosing, 5 mg/kg PO, read-out: PO T½ (converted)): 14.5 h; CL renal ([1]; rat cassette dosing, IV 1 mg/kg, read-out: IV Clr. (converted)): 2.5 mL/min/kg; hERG (hERG channel): >30 µM; Cyp [2]: >10 µM
2 | CC1(Nc2ncc(C(=O)Nc3cc(-c4cccs4)ccc3N)cn2)CCN(C(=O)Oc2ccccc2)CC1 [Compound 007] | 118 | 703 | 929 | –
3 | CC1(Nc2ncc(C(=O)Nc3cc(-c4cccs4)ccc3N)cn2)CCN(C(=O)N2CCOCC2)CC1 [Compound 008] | 9 | 37 | 124 | –
4 | Nc1ccc(-c2cccs2)cc1NC(=O)c1cnc(NC2CCN(C(=O)N3CCCCC3)CC2)nc1 [Compound 009] | 32 | 145 | 250 | –
5 | CC1(Nc2ncc(C(=O)Nc3cc(-c4cccs4)ccc3N)cn2)CCN(C(=O)N2CCNCC2)CC1 [Compound 010] | 7.3 | 26 | – | –
6 | CN1CCN(C(=O)N2CCC(C)(Nc3ncc(C(=O)Nc4cc(-c5cccs5)ccc4N)cn3)CC2)CC1 [Compound 011] | 8.5 | 32 | 201 | –
7 | CC1(Nc2ncc(C(=O)Nc3cc(-c4cccs4)ccc3N)cn2)CCN(C(=O)N2CCC(F)(F)CC2)CC1 [Compound 012] | 19 | 177 | 1270 | –
8 | CC1(Nc2ccc(C(=O)Nc3cc(-c4cccs4)ccc3N)cc2)CCN(C(=O)N2CCCC2)CC1 [Compound 013] | 4 | 14 | 412 | –
9 | CC1(Nc2ncc(C(=O)Nc3cc(-c4cccs4)ccc3N)cn2)CCN(C(=O)N2CCC(O)CC2)CC1 [Compound 014] | 63 | 299 | > 2000 | –
10 | CC1(Nc2ccc(C(=O)Nc3cc(-c4cccs4)ccc3N)cc2)CCN(C(=O)N2CCNCC2)CC1 [Compound 015] | 3.2 | 12 | 149 | –
11 | CN1CCN(C(=O)N2CCC(C)(Nc3ccc(C(=O)Nc4cc(-c5cccs5)ccc4N)cc3)CC2)CC1 [Compound 016] | 3.2 | 13 | 145 | –
12 | CCC1(Nc2ccc(C(=O)Nc3cc(-c4cccs4)ccc3N)cc2)CCN(C(=O)N2CCOCC2)CC1 [Compound 017] | 18 | 99 | 1740 | –
13 | Nc1ccc(-c2cccs2)cc1NC(=O)c1cnc(N2CCCC23CCN(C(=O)N2CCCC2)CC3)nc1 [Compound 018] | 12 | 78 | 516 | –
14 | Nc1ccc(-c2cccs2)cc1NC(=O)c1ccc(NC2CCN(C(=O)N3CCOCC3)CC2)cc1 [Compound 020] | 3.7 | 17 | 304 | –
15 | Nc1ccc(-c2cccs2)cc1NC(=O)c1ccc(NC2CCN(C(=O)C3CCCCC3)CC2)cc1 [Compound 021] | 15 | 72 | 555 | –
16 | Nc1ccc(-c2cccs2)cc1NC(=O)c1ccc(NC2CCN(C(=O)C3CCOCC3)CC2)cc1 [Compound 022] | 5 | 18 | 203 | –
